Earlier results, collected in publication PMC10687071 (The Journal of Biological Chemistry, 2023).

Columns and labels:
[1] = tested on: PAS domains of EAG channels; set-up: method as in PMID 31315662, PMID 32047112; details: cited from earlier work
[2] = tested on: PAS domains of ERG3 channels; set-up: method as in PMID 32723862; details: cited from earlier work

| SMILES | Binding to PAS domains of EAG channels [1] | Binding to PAS domains of ERG3 channels [2] |
| --- | --- | --- |
| CN(C)CCCN1c2ccccc2Sc2ccc(Cl)cc21 [chlorpromazine] | bind |  |
| C=CC1=C(C)c2cc3[n-]c(cc4[n-]c(cc5nc(cc1n2)C(C)=C5C=C)c(C)c4CCC(=O)O)c(CCC(=O)O)c3C.[Fe+2] [heme] |  | bind |
| C=CCCCCCCCCC(=O)O [undecylenic acid] | bind |  |
